Assay results: ChEMBL document CHEMBL5528044, “Exploring the Function of (+)-Naltrexone Precursors: Their Activity as TLR4 Antagonists and Potential in Treating Morphine Addiction” (J Med Chem, 2024)
The source made the active and inactive calls. The rule behind the calls is not given here.

What was measured:
Toll-like receptor 4 = molecular target: T1, Toll-like receptor 4 (Mus musculus, UniProt Q9QUK6); assay: Antagonist activity at TLR4 in mouse BV-2 cells assessed as inhibition of LPS-induced NO overproduction incubated for 24 hrs by 2,3-diaminonaphthalene reagent based microplate reader analysis; type: cell-based
T1 sequence (Q9QUK6 whole entry): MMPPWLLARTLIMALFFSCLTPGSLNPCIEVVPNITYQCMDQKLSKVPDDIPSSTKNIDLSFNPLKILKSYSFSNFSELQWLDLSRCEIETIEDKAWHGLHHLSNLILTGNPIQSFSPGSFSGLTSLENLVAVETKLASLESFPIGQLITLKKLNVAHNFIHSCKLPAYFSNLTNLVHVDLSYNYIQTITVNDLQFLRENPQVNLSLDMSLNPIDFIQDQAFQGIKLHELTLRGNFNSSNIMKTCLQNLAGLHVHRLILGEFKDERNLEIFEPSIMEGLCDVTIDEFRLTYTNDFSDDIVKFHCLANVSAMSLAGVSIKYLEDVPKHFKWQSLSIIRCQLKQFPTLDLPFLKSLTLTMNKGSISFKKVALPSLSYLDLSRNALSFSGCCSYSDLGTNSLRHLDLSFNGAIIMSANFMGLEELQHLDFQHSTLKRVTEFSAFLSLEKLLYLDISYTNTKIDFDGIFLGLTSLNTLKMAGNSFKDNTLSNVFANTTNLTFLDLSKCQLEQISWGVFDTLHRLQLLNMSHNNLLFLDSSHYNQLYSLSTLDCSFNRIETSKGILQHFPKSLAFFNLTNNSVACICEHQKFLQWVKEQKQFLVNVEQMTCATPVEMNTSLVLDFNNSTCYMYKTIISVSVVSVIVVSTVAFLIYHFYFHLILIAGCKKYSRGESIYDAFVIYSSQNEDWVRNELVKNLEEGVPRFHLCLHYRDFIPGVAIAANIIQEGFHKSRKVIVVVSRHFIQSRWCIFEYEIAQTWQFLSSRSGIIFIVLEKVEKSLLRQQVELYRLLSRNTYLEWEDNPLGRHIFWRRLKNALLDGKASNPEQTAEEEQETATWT

[1] = Half life in Balb/c mouse at 2 mg/kg,iv administration and measured upto 24 hrs by LC-MS/MS analysis; type: ADME, organism-based; details: in vivo
[2] = Ratio of drug concentration in brain to plasma in Balb/c mouse at 2 mg/kg,iv measured after 30 mins by LC-MS/MS analysis; type: ADME, organism-based; details: 0.5 h
[3] = Tmax in Balb/c mouse at 20 mg/kg,po administration and measured upto 24 hrs by LC-MS/MS analysis; type: ADME, organism-based; details: in vivo
[4] = AUC (0 to infinity) in Balb/c mouse at 20 mg/kg,po administration and measured upto 24 hrs by LC-MS/MS analysis; type: ADME, organism-based; details: in vivo
[5] = Oral bioavailability in Balb/c mouse at 20 mg/kg administration and measured upto 24 hrs by LC-MS/MS analysis; type: ADME, organism-based; details: in vivo
[6] = molecular target: T2, Toll-like receptor 4 (Mus musculus) (UniProt Q9QUK6); assay: Antagonist activity at TLR4 in mouse BV-2 cells assessed as inhibition of LPS-induced NF-kappaB activation at 4 uM incubated for 24 hrs by dual-glo luciferase assay; type: cell-based; details: filed as antagonist
T2 sequence (whole entry): T1 sequence (Q9QUK6 whole entry)

[7] = molecular target: T2, Toll-like receptor 4 (Mus musculus); assay: Antagonist activity at TLR4 signaling pathway in mouse BV-2 cells assessed as inhibition of LPS-induced TRIF recruitment at 5 uM incubated for 1 hr by co-immunoprecipitation based Western blot analysis; type: cell-based; details: filed as antagonist
[8] = molecular target: T2, Toll-like receptor 4 (Mus musculus); assay: Antagonist activity at TLR4 signaling pathway in mouse BV-2 cells assessed as inhibition of LPS-induced MyD88 recruitment at 5 uM incubated for 1 hr by co-immunoprecipitation based Western blot analysis; type: cell-based
[9] = molecular target: T2, Toll-like receptor 4 (Mus musculus); assay: Antagonist activity at TLR4 signaling pathway in mouse BV-2 cells assessed as downregulation of LPS-induced IKKbeta phosphorylation at 5 uM incubated for 1 hr by Western blot analysis; type: cell-based; details: filed as antagonist
[10] = molecular target: T2, Toll-like receptor 4 (Mus musculus); assay: Antagonist activity at TLR4 signaling pathway in mouse BV-2 cells assessed as downregulation of LPS-induced JNK phosphorylation at 5 uM incubated for 1 hr by Western blot analysis; type: cell-based; details: filed as antagonist
[11] = molecular target: T2, Toll-like receptor 4 (Mus musculus); assay: Antagonist activity at TLR4 signaling pathway in mouse BV-2 cells assessed as downregulation of LPS-induced IRF-3 phosphorylation at 5 uM incubated for 1 hr by Western blot analysis; type: cell-based; details: filed as antagonist
Mus musculus [12] = assay: Inhibition of morphine-induced addiction behavior in Balb/c mouse assessed as decrease in morphine-induced behavioral sensitization during induction phase at 0.005 to 0.2 mg/kg,ip administrated on day 4 to 10 by open-field test; type: functional, organism-based; details: dose 0.005-0.2 mg/kg, time 7.0 day
Mus musculus [13] = assay: Inhibition of morphine-induced addiction behavior in Balb/c mouse assessed as decrease in total distance traveled in field at 0.005 to 0.2 mg/kg,ip administrated on day 4 to 10 by open-field test; type: functional, organism-based; details: dose 0.005-0.2 mg/kg, time 7.0 day
Mus musculus [14] = assay: Inhibition of morphine-induced addiction behavior in Balb/c mouse assessed reduction in CPP score at 0.2 mg/kg,ip administrated for 6 consecutive days by conditioned place preference assay; type: functional, organism-based
Mus musculus [15] = assay: Inhibition of chronic morphine-induced microglia activation in Balb/c mouse assessed as reduction in Iba1 expression in brain medial prefrontal cortex region at 0.2 mg/kg,ip administrated for 6 consecutive days by immunofluorescence staining based analysis; type: functional, organism-based
Mus musculus [16] = assay: Inhibition of chronic morphine-induced microglia activation in Balb/c mouse assessed as reduction in Iba1 expression in brain ventral tegmental area region at 0.2 mg/kg,ip administrated for 6 consecutive days by immunofluorescence staining based analysis; type: functional, organism-based
Mus musculus [17] = assay: Inhibition of chronic morphine-induced microglia activation in Balb/c mouse assessed as reduction in Iba1 expression in nucleus accumbens region at 0.2 mg/kg,ip administrated for 6 consecutive days by immunofluorescence staining based analysis; type: functional, organism-based
Mus musculus [18] = assay: Inhibition of chronic morphine-induced microglia activation in Balb/c mouse assessed as reduction in TNF-alpha mRNA expression in brain medial prefrontal cortex region at 0.2 mg/kg,ip administrated for 6 consecutive days by qPCR analysis; type: functional, organism-based
Mus musculus [19] = assay: Inhibition of chronic morphine-induced microglia activation in Balb/c mouse assessed as reduction in TNF-alpha mRNA expression in brain ventral tegmental area region at 0.2 mg/kg,ip administrated for 6 consecutive days by qPCR analysis; type: functional, organism-based
Mus musculus [20] = assay: Inhibition of chronic morphine-induced microglia activation in Balb/c mouse assessed as reduction in TNF-alpha mRNA expression in brain nucleus accumbens region at 0.2 mg/kg,ip administrated for 6 consecutive days by qPCR analysis; type: functional, organism-based
Mus musculus [21] = assay: Inhibition of chronic morphine-induced microglia activation in Balb/c mouse assessed as reduction in microglia cell number in brain medial prefrontal cortex region at 0.2 mg/kg,ip administrated for 6 consecutive days by immunofluorescence staining based analysis; type: functional, organism-based
Mus musculus [22] = assay: Inhibition of chronic morphine-induced microglia activation in Balb/c mouse assessed as reduction in microglia cell number in brain ventral tegmental area region at 0.2 mg/kg,ip administrated for 6 consecutive days by immunofluorescence staining based analysis; type: functional, organism-based
Mus musculus [23] = assay: Inhibition of chronic morphine-induced microglia activation in Balb/c mouse assessed as reduction in microglia cell number in brain nucleus accumbens region at 0.2 mg/kg,ip administrated for 6 consecutive days by immunofluorescence staining based analysis; type: functional, organism-based

SMILES | IC50 (Toll-like receptor 4) | half-life [1] | BPR [2] | Tmax [3] | AUC(0-inf) [4] | bioavailability [5] | Activity [6] | Activity [7] | Activity [8] | Activity [9] | Activity [10] | Activity [11] | inhibition (Mus musculus [12]) | inhibition (Mus musculus [13]) | inhibition (Mus musculus [14]) | inhibition (Mus musculus [15]) | inhibition (Mus musculus [16]) | inhibition (Mus musculus [17]) | inhibition (Mus musculus [18]) | inhibition (Mus musculus [19]) | further results
CN1CC[C@@]23c4c5ccc(O)c4O[C@@H]2C(=O)C=C[C@]3(O)[C@@H]1C5 (single isomer, unassigned) | 1000 nM | 2.2 h | 18.4% | 1.2 h | 295 ng·h/mL | 41.1% | Active | Active | inactive | Active | Active | Active | Dose-Dependent Effect | inactive | Active | Active | Active | Active | Active | Active | inhibition (Mus musculus [20]): Active; inhibition (Mus musculus [21]): Active; inhibition (Mus musculus [22]): Active; inhibition (Mus musculus [23]): inactive
COc1ccc2c3c1O[C@@H]1C(=O)C=C[C@]4(O)[C@H](C2)N(C)CC[C@@]314 (single isomer, unassigned) | 1300 nM | 0.6 h | 73.6% | 1.2 h | 89.6 ng·h/mL | 54.3% | Active | Active | inactive | Active | Active | Active | Dose-Dependent Effect | inactive | Active | Active | Active | Active | Active | Active | inhibition (Mus musculus [20]): Active; inhibition (Mus musculus [21]): Active; inhibition (Mus musculus [22]): Active; inhibition (Mus musculus [23]): inactive
